Data reported in ChEMBL document CHEMBL4396887, “Five-Membered N-Heterocyclic Scaffolds as Novel Amino Bioisosteres at γ-Aminobutyric Acid (GABA) Type A Receptors and GABA Transporters” (J Med Chem, 2019).
Active and inactive are the calls of the source. The rule behind the calls is not given here.

Tests used:
Format in all cases: cell-based
[1] = biological target: Gamma-aminobutyric acid receptor subunit rho-1 (Homo sapiens, UniProt P24046); test: Agonist activity at recombinant human GABA-A rho-1 receptor transiently expressed in human tsA201 cells incubated for 30 mins and measured up to 90 secs by FMP dye based FLIPR membrane potential blue assay
Chain of Gamma-aminobutyric acid receptor subunit rho-1 (P24046 whole entry): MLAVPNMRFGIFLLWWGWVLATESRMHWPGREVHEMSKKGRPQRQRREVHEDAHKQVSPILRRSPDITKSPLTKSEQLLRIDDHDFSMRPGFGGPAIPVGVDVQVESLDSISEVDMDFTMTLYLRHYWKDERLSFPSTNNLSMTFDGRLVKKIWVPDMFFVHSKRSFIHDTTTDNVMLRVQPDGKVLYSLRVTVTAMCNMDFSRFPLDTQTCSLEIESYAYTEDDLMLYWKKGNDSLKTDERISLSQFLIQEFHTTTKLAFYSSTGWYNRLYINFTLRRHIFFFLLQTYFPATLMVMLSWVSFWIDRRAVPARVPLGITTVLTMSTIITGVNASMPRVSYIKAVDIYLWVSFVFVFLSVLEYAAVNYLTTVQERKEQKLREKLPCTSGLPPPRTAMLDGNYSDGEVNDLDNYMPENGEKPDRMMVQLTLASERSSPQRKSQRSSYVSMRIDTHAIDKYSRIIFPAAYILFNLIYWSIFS

[2] = biological target: T1, Gamma-aminobutyric acid receptor subunit alpha-5/beta-2/gamma-2 (Homo sapiens, UniProt P18507+P31644+P47870); test: Agonist activity at recombinant human GABA-A alpha5beta2gamma2S receptor transiently expressed in human tsA201 cells incubated for 30 mins and measured up to 90 secs by FMP dye based FLIPR membrane potential blue assay
T1 sequence (P47870 whole entry): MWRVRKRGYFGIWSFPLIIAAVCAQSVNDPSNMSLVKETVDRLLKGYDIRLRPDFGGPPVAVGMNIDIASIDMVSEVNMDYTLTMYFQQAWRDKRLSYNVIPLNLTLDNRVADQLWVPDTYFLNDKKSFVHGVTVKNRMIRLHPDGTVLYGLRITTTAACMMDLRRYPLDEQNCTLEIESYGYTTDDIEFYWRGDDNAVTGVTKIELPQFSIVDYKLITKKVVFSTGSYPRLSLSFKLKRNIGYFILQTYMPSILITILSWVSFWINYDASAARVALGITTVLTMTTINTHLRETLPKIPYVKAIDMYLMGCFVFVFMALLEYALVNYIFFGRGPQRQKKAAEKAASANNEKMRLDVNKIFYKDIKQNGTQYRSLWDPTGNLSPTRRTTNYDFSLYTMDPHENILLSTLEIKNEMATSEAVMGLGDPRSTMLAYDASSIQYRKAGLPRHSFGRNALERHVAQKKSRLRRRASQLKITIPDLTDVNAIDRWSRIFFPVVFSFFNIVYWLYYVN
T1 sequence (P18507 whole entry): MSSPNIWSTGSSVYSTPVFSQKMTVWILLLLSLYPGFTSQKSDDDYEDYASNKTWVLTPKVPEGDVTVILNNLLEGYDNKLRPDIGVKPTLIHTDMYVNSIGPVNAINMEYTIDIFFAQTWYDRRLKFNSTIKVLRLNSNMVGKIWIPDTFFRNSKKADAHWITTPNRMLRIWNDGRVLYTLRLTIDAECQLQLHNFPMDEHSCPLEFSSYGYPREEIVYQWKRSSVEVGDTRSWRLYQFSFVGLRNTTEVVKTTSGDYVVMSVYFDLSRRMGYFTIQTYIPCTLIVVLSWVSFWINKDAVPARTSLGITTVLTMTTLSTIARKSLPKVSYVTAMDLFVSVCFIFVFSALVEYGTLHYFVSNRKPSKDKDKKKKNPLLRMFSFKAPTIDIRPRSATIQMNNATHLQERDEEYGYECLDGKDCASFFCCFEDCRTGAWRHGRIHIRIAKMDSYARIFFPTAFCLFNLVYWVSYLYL
T1 sequence (P31644 whole entry): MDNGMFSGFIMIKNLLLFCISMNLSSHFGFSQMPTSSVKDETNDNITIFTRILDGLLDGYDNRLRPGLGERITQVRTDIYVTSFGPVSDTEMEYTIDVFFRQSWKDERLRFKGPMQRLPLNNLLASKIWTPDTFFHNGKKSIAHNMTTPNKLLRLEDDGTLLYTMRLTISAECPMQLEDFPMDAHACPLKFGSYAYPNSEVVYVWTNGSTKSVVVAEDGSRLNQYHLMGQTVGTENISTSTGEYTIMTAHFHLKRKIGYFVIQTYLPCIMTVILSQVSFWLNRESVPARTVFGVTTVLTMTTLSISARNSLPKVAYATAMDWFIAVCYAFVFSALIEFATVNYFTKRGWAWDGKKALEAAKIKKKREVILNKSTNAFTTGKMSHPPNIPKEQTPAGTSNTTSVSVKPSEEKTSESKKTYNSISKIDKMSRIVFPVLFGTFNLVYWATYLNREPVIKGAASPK

[3] = biological target: GABA-A receptor; alpha-1/beta-2/gamma-2 (Homo sapiens) (UniProt P14867+P47870+P18507); test: Agonist activity at recombinant human GABA-A alpha1beta2gamma2S receptor transiently expressed in human tsA201 cells assessed as GABA-induced maximum response incubated for 30 mins and measured up to 90 secs by FMP dye based FLIPR membrane potential blue assay relative to GABA
[4] = biological target: T2, Sodium- and chloride-dependent GABA transporter 3 (Homo sapiens, UniProt P48066); test: Inhibition of human GAT3 expressed in Flp-In CHO cells assessed as reduction in [3H]GABA uptake incubated for 3 mins by liquid scintillation counting method
T2 sequence (P48066 whole entry): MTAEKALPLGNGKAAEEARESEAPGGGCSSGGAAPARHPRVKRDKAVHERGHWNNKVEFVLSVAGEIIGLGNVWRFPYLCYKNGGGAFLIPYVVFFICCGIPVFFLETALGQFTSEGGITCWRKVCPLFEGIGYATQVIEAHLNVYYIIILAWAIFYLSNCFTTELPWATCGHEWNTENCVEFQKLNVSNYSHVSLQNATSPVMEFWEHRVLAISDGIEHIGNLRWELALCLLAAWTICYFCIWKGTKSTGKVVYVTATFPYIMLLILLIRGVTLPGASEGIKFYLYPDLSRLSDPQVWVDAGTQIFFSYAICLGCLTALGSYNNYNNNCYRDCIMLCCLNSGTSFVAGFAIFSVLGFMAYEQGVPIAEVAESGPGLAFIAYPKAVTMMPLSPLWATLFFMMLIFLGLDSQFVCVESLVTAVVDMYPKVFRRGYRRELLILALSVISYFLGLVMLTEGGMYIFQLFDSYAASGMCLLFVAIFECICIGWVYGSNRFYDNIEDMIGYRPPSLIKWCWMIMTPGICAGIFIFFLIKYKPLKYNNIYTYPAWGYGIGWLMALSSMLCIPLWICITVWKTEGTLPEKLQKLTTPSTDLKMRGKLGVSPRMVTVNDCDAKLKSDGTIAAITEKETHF

[5] = biological target: Sodium- and chloride-dependent GABA transporter 1 (Homo sapiens, UniProt P30531); test: Inhibition of human GAT1 expressed in Flp-In CHO cells assessed as reduction in [3H]GABA uptake at 100 uM incubated for 3 mins by liquid scintillation counting method relative to control
Chain of Sodium- and chloride-dependent GABA transporter 1 (P30531 whole entry, looked up): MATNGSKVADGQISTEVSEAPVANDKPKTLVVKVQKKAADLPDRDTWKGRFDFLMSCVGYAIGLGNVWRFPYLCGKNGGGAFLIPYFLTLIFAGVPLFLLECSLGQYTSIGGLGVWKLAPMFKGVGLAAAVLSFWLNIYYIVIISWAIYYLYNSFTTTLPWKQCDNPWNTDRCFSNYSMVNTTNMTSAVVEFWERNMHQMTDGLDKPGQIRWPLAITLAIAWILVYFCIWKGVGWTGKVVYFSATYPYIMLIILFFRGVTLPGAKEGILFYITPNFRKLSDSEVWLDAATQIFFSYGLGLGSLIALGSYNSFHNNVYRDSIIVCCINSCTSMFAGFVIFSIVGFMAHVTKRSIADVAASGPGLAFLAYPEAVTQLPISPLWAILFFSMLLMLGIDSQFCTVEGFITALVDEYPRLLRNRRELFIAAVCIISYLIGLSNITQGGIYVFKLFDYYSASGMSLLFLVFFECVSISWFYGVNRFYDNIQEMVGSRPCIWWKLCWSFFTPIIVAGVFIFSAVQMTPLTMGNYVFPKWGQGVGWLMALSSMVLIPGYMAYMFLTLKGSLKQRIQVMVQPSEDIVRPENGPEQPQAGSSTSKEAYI

cells = conditions: Homo sapiens, tsA201, 0.5 h

SMILES	EC50 [1]	pEC50 [1]	EC50 [2] [µM]	Rmax [3]	IC50 ([4]; read-out: IC50) [µM]	inhibition [5] [%]	EC50 (cells; read-out: EC50) [µM]	EC50 (cells; read-out: pEC50 (converted)) [µM]	EC50 ([1]; read-out: EC50) [µM]	IC50 ([4]; read-out: pIC50 (converted)) [µM]
O=C(O)C[C@@H]1CCNC1	Not Active	inactive	24	inactive	2.7	> 30	–	–	–	–
C[C@@H](C(=O)O)[C@H]1CSC(N)=N1 (relative stereo)	–	–	2.6	59%	> 100	> 30	17	16.6	–	–
CC(C(=O)O)C1CSC(N)=N1 (stereo in doubt; l-10b)	–	–	11	–	> 100	–	–	–	1.2	–
O=C(O)C[C@H]1CCNC1	–	–	0.94	93%	2.3	> 30	5.6	5.62	8.4	–
NC1=NC(CC(=O)O)CN1 (stereo not drawn)	–	–	1.6	81%	43.7	> 30	12	11.5	3.8	–
C[C@H]1SC(N)=N[C@@H]1CC(=O)O (relative stereo)	Not Active	inactive	17	inactive	> 100	> 30	–	–	–	–
O=C(O)CC1CNC=N1 (stereo not drawn)	–	–	0.79	1%	1.9	> 30	5.4	5.37	2.8	–
NC1=NC(CC(=O)O)CS1 (stereo not drawn)	–	–	0.22	86%	151	> 30	1.1	1.1	6.5	126
CC(C(=O)O)C1CSC(N)=N1 (stereo in doubt; l-10a)	–	–	2.7	–	> 100	–	30	30.2	7.4	–
C[C@@H](C(=O)O)[C@@H]1CSC(N)=N1 (relative stereo)	–	–	3	22%	> 100	> 30	36	35.5	1.6	–
C[C@@H]1SC(N)=N[C@@H]1CC(=O)O (relative stereo)	–	–	8.2	inactive	> 100	> 30	54	55	–	–
